Reference: patent US4070484A, “Antiallergic composition containing aromatic carboxylic amide derivatives and method of using the same” (Kissei Pharmaceutical Co., Ltd., priority 1973, dated 1978)

Columns and labels:
[1] = system: homologous passive cutaneous anaphylaxis (antigen-antibody reaction); assay: Homologous Passive Cutaneous Anaphylaxis in Rats; assay type: in vivo, rat (Wistar male); conditions: 200 mg/kg orally 2 hours prior to the injection of antigen; for inhibition at 200 mg/kg: Rattus norvegicus, po
Procedure: Wistar male rats weighing 120-150 g were used in this experiment. […]. Normal rats were sensitized passively with dilution of the antibody by means of intradermal injection. After 48 hours of the sensitization, the mixture of antigen (EA) and evens blue was injected intravenously. The animals were killed by a blow on the head 30 minutes after the injection, and then the blue spot resulted from the antigen-antibody reaction was measured photometrically.
A given test compound dissolved in 1 % NaHCO3 solution was administrated in a dose of 200 mg/kg orally 2 hours prior to the injection of antigen, while only the vehicle solution was administered to the control group.
The efficacy of the test compounds to inhibit the homologous passive cutaneous anaphlaxis was compared with the value (%) calculated using the following formula: [formula] wherein A stands for the amount of leaked dye in control group and B for the amount of leaked dye in the group administered with a given test compound.

[2] = system: antiallergic action, oral administration to mammalia; assay: Antiallergic action (general statements); assay type: in vivo; conditions: general statement
[3] = system: sensitized mesenteric mast cells; assay: Effect on the Disruption of the Sensitized Mast Cells; assay type: cell-based, rat; conditions: 10^-5 g/ml, 5 minutes prior to the treatment of antigen
Procedure: Mesenteric mast cells isolated from normal rats were sensitized passively by means of incubation with rat reaginic antibody at 37° C. After termination of the incubation, the specific antigen (DNP-Ascaris) was added to the incubation medium, then these mast cells in mesentery were fixed with formalin and stained with 0.1 % toluidine blue (in acetic acid buffer; pH: 4.6). The number of mast cells disrupted as a consequence of the antigen-antibody reaction were counted under a microscope. The number of the mast cells disrupted were also counted without the addition of the specific antigen.
A given test compound dissolved in 1 % NaHCO3 solution was added to the incubation medium at a concentration of 10^-5 g/ml, 5 minutes prior to the treatment of antigen, while only the vehicle was added to the control group.
The efficacy of the test compounds to inhibit the mast cell disruption was compared with the value (%) calculated using the following formula: [formula] wherein P stands for the percentage of disrupted mast cells in the control group, Q for the percentage of mast cells disrupted spontaneously and R for the percentage of disrupted mast cells in the group treated with a given test compound.

mast cells = conditions: known art; cited from earlier work
[4] = Acute Toxicity (LD50) in mice; assay type: in vivo; conditions: mouse, in vivo, po, mortality on the 8th day
Procedure: The median lethal dose (LD50) of the new aromatic carboxylic acid amide derivatives of this invention were determined in dd-stain male and female mice (6 weeks old) by oral administration and in Wistar strain male and female rats (7 weeks old) by oral and intraperitoneal administration. Each animal selected for the experiment was maintained in an air conditioned room at a temperature of 22° ± 1° C and a relative humidity of 55 ± 5% during the full course of the experiment. All animals were fed compressed pellets (CE-2 type produced by Japan CLEA Co.) and water was available ad libitum by bottle. Five groups of ten animals for each administration route were used.
Since these compounds were isoluble in water, they were suspended in a 0.5% aqueous solution of carboxymethylcellulose at each dosage level. The administrative volume of each agent to 10 g body weight mouse was 0.2 ml for oral administration, while that to 100g body weight of rat was 0.5 ml for intraperitoneal and oral administrations.
The LD50 values were calculated from the mortality on the 8th day by the Litchfield-Wilcoxon's method.

O=C(C=Cc1ccccc1)Nc1cccc(C(=O)O)c1 [3-(cinnamoylamino)-benzoic acid, reference compound]
inhibition at 200 mg/kg [1]: 10%

O=C(C=Cc1ccc(O)cc1)Nc1ccccc1C(=O)O [compound 1, N-(4'-hydroxycinnamoyl)-anthranilic acid]
inhibition at 200 mg/kg [1]: 36.7%

COc1cc(C=CC(=O)Nc2ccccc2C(=O)O)ccc1OCC(=O)O [N-(3'-methoxy-4'-carboxylmethoxycinnamoyl)-anthranilic acid, reference compound]
inhibition at 200 mg/kg [1]: 0%

COc1cc(OC)c(OC)cc1C=CC(=O)Nc1ccccc1C(=O)O [compound 52, N-(2',4',5'-trimethoxycinnamoyl)-anthranilic acid]
inhibition at 200 mg/kg [1]: 56.8%

COc1cccc(C=CC(=O)Nc2cccc(C(=O)O)c2)c1OC [compound 60, 3-(2',3'-dimethoxycinnamoylamino)-benzoic acid]
inhibition at 200 mg/kg [1]: 41.1%

Methylenedioxycinnamoylaminobenzoic acid
antiallergic action / pharmacological activity (in words) [2]: strong antiallergic action

cinnamoylaminobenzoic acid [reference compound]
antiallergic action / pharmacological activity (in words) [2]: only very weak antiallergic effect

COc1ccc(CCC(=O)Nc2ccccc2C(=O)O)cc1OC [compound 67, N-(3',4'-dimethoxylhydrocinnamoyl)-anthranilic acid]
inhibition at 200 mg/kg [1]: 55.4%

COc1cccc(C=CC(=O)Nc2ccc(C(=O)O)cc2)c1O [compound 6, 4-(2'-hydroxy-3'-methoxycinnamoylamino)-benzoic acid]
inhibition at 200 mg/kg [1]: 33.5%

COc1cc(C=CC(=O)Nc2ccccc2C(=O)O)ccc1OCC(O)CO (stereo not drawn) [N-[3'-methoxy-4'-(2,3-dihydroxypropoxy)-cinnamoyl]-anthranilic acid, reference compound]
inhibition at 200 mg/kg [1]: 9%

O=C(C=Cc1ccccc1)Nc1ccc(C(=O)O)cc1 [4-(cinnamoylamino)-benzoic acid, reference compound]
inhibition at 200 mg/kg [1]: 7%

COc1ccc(C(C)=CC(=O)Nc2ccccc2C(=O)O)cc1OC [N-(3',4'-dimethoxy-β-methylcinnamoyl)-anthranilic acid]
Inhibition percentage (mast cell disruption) [3]: 45%
inhibition at 200 mg/kg [1]: 66.2%

OCC(O)COc1ccc(Cl)cc1 (stereo not drawn) [Chlorphenesin, reference compound]
inhibition of mast cell disruption (in words) (mast cells): inhibitor of mast cell disruption
inhibition at 200 mg/kg [1]: 36.7%

O=C(C=Cc1ccccc1Cl)Nc1ccccc1C(=O)O [compound 22, N-(2'-chlorocinnamoyl)-anthranilic acid]
LD50 at 192 h [4]: 343 mg/kg
inhibition at 200 mg/kg [1]: 60.2%

COc1cccc(C=CC(=O)Nc2cccc(C(=O)O)c2)c1 [compound 15, 3-(3'-methoxycinnamoylamino)-benzoic acid]
Inhibition percentage (mast cell disruption) [3]: 18%
inhibition at 200 mg/kg [1]: 45%

CCCOc1ccc(C=CC(=O)Nc2ccccc2C(=O)O)cc1OC [compound 54, N-(3'-methoxy-4'-n-propoxycinnamoyl)-anthranilic acid]
Inhibition percentage (mast cell disruption) [3]: 37%
inhibition at 200 mg/kg [1]: 52.2%

N-(4'-bromocinnamoylamino)-benzoic acid
Inhibition (%) [1]: 32.3%

COc1cccc(C=CC(=O)Nc2ccccc2C(=O)O)c1OC [compound 31, N-(2',3'-dimethoxycinnamoyl)-anthranilic acid]
inhibition at 200 mg/kg [1]: 56.8%

O=C(C=Cc1cccc(F)c1)Nc1ccccc1C(=O)O [compound 29, N-(3'-fluorocinnamoyl)-anthranilic acid]
LD50 at 192 h [4]: 551 mg/kg
inhibition at 200 mg/kg [1]: 47.5%

Cc1ccc(C=CC(=O)Nc2ccccc2C(=O)O)cc1 [compound 42, N-(4'-methylcinnamoyl)-anthracilic acid]
inhibition at 200 mg/kg [1]: 54%

O=C(C=Cc1cccc(Cl)c1)Nc1ccccc1C(=O)O [N-(3'-chlorocinnamoyl)-anthranilic acid]
LD50 at 192 h [4]: 700 mg/kg

COc1cc(C=CC(=O)Nc2ccccc2C(=O)O)ccc1OC(C)C [compound 56, N-(3'-methoxy-4'-isopropoxycinnamoyl)-anthranilic acid]
inhibition at 200 mg/kg [1]: 47.1%

O=C(C=Cc1ccc(Cl)cc1)Nc1ccccc1C(=O)O [compound 20, N-(4'-chlorocinnamoyl)-anthranilic acid]
LD50 at 192 h [4]: 551 mg/kg
inhibition at 200 mg/kg [1]: 69.4%

O=C(C=Cc1ccccc1F)Nc1ccccc1C(=O)O [compound 30, N-(2'-fluorocinnamoyl)-anthranilic acid]
LD50 at 192 h [4]: 321 mg/kg

O=C(C=Cc1ccccc1)Nc1ccccc1C(=O)O [N-cinnamoyl-anthranilic acid, reference compound]
inhibition at 200 mg/kg [1]: 16.7%

O=C(C=Cc1ccc(F)cc1)Nc1ccccc1C(=O)O [compound 28, N-(4'-fluorocinnamoyl)-anthranilic acid]
LD50 at 192 h [4]: 481 mg/kg
